Consider four compounds from patent publication US20150166528A1, “Pesticidal methods using substituted 3-pyridyl thiazole compounds and derivatives for combating animal pests” (BASF SE, priority 2012, published 2015).

Common to all, as to format: in vivo
In experiment [1] the test system is Megoura viciae. Kind of experiment: Vetch aphid (Megoura viciae) leaf disk test, contact or systemic. The settings on record: foliar, 120 h, sprayed broad bean leaf disks, adult aphids, 5 days, read-out: mortality in comparison with untreated controls. On the procedure: For evaluating control of vetch aphid (Megoura viciae) through contact or systemic means the test unit consisted of 24-well-microtiter plates containing broad bean leaf disks.
The compounds were formulated using a solution containing 75% v/v water and 25% v/v DMSO. Different concentrations of formulated compounds were sprayed onto the leaf disks at 2.5 μl, using a custom built micro atomizer, at two replications.
After application, the leaf disks were air-dried and 5-8 adult aphids were placed on the leaf disks inside the microtiter plate wells. The aphids were then allowed to suck on the treated leaf disks and were incubated at about 23±1° C. and about 50±5% relative humidity for 5 days. Aphid mortality and fecundity were then visually assessed.

Experiment [2] relates to Myzus persicae. Kind of experiment: Green peach aphid (Myzus persicae) artificial diet test, systemic. The settings on record: 72 h, in liquid artificial aphid diet, adult aphids, 3 days, read-out: mortality in comparison with untreated controls. An excerpt:
For evaluating control of green peach aphid (Myzus persicae) through systemic means the test unit consisted of 96-well-microtiter plates containing liquid artificial diet under an artificial membrane.
The compounds were formulated using a solution containing 75% v/v water and 25% v/v DMSO. Different concentrations of formulated compounds were pipetted into the aphid diet, using a custom built pipetter, at two replications.
After application, 5-8 adult aphids were placed on the artificial membrane inside the microtiter plate wells. The aphids were then allowed to suck on the treated aphid diet and were incubated at about 23±1° C. and about 50±5% relative humidity for 3 days. Aphid mortality and fecundity was then visually assessed.

In experiment [3] the test system is Aphis Craccivora. The experiment is described as follows: Cowpea aphid (Aphis craccivora) potted cowpea plant spray test. The conditions noted are these: sprayed potted cowpea plants, population reduction assessed after 24, 72 and 120 hours, read-out: mortality in comparison with untreated controls. The procedure:
The active compound was dissolved at the desired concentration in a mixture of 1:1 (vol:vol) distilled water:acetone. The test solution was prepared at the day of use.
Potted cowpea plants colonized with approximately 100-150 aphids of various stages were sprayed after the pest population has been recorded. Population reduction was assessed after 24, 72, and 120 hours.

The test system of experiment [4] is Bemisia Argentifolii. Kind of experiment: Silverleaf whitefly (Bemisia argentifolii) cotton plant spray test. The conditions noted are these: 72 h, sprayed cotton plants, whitefly adults, 3 days after treatment, read-out: mortality in comparison with untreated controls. An excerpt:
The active compounds were formulated in cyclohexanone as a 10,000 ppm solution supplied in tubes. The tubes were inserted into an automated electrostatic sprayer equipped with an atomizing nozzle and they served as stock solutions for which lower dilutions were made in 50% acetone:50% water (v/v). A nonionic surfactant (Kinetic®) was included in the solution at a volume of 0.01% (v/v).
Cotton plants at the cotyledon stage (one plant per pot) were sprayed by an automated electrostatic plant sprayer equipped with an atomizing spray nozzle. The plants were dried in the sprayer fume hood and then removed from the sprayer. Each pot was placed into a plastic cup and about 10 to 12 whitefly adults (approximately 3-5 days old) were introduced. The insects were collected using an aspirator and a nontoxic Tygon® tubing connected to a barrier pipette tip. The tip, containing the collected insects, were gently inserted into the soil containing the treated plant, allowing insects to crawl out of the tip to reach the foliage for feeding. Cups were covered with a reusable screened lid. Test plants were maintained in a growth room at about 25° C. and about 20-40% relative humidity for 3 days, avoiding direct exposure to fluorescent light (24 hour photoperiod) to prevent trapping of heat inside the cup. Mortality was assessed 3 days after treatment, compared to untreated control plants.

Experiment [5] has as its system Heliothis virescens. The experiment is described as follows: Tobacco budworm (Heliothis virescens) insect diet egg/larval test. The conditions noted are these: 120 h, sprayed onto insect diet with eggs, egg and larval mortality, 5 days, read-out: mortality in comparison with untreated controls. The procedure: For evaluating control of tobacco budworm (Heliothis virescens) the test unit consists of 96-well-microtiter plates containing an insect diet and 15-25 H. virescens eggs.
The compounds were formulated using a solution containing 75% v/v water and 25% v/v DMSO. Different concentrations of formulated compounds were sprayed onto the insect diet at 10 μl, using a custom built micro atomizer, at two replications.
After application, microtiter plates were incubated at about 28±1° C. and about 80±5% relative humidity for 5 days. Egg and larval mortality was then visually assessed.

Consider `CCN(C1=NCCS1)c1cnc(-c2cccnc2)s1` [C.1, N-(4,5-dihydrothiazol-2-yl)-N-ethyl-2-(3-pyridyl)thiazol-5-amine], for which the mortality at 800 ppm in experiment [1] and in experiment [2] was no less than 75% in each case. Besides, in experiment [3], the mortality at 100 ppm is no less than 75%. In experiment [4], the mortality at 300 ppm was no less than 75%.

Take `CCN(C1=NCCS1)c1sc(-c2cccnc2)nc1Cl` [C.3, 4-chloro-N-(4,5-dihydrothiazol-2-yl)-N-ethyl-2-(3-pyridyl)thiazol-5-amine]: the mortality at 800 ppm in experiment [1] is no less than 75%. Further, the mortality at 100 ppm in experiment [3] was no less than 75%.

Take `CCN(C1=NCCO1)c1sc(-c2cccnc2)nc1Cl` [C.4, N-[4-chloro-2-(3-pyridyl)thiazol-5-yl]-N-ethyl-4,5-dihydrooxazol-2-amine]: the mortality at 800 ppm in experiment [1] and in experiment [2] was no less than 75% in each case. Further, the mortality at 100 ppm in experiment [3] was no less than 75%. In addition, the mortality at 300 ppm in experiment [4] is no less than 75%.

With `[O-][S+](c1ncccn1)c1cnc(-c2cccnc2)s1` (centres unmarked) [C.11, 2-(3-Pyridyl)-5-pyrimidin-2-ylsulfinyl-thiazole], in experiment [5], the mortality at 800 ppm is no less than 75%.
